Measurements taken from patent US20020006420A1, “USE OF A 2-AMINO-ALKANE POLYOL AS AGENT FOR TREATING SKIN AGEING SIGNS” (priority 1997, published 2002).

Legend:
Assay type in all cases: cell-based
HaCat cells [1] = assay: Effect on the cell cycle (BrdU incorporation, S phase); details: 50 nM
Method: (§1) HaCat cells are cultured as above.
(§2) They are then inoculated at the density of 20,000 cells per well into the 24 wells of multiwell-type plates (Costar, France).
24 hours after inoculation, the cells are brought into contact with various compounds tested in a KBM medium (company Clonetics) containing insulin at 5 μg/ml and hydrocortisone at 0.5 μg/ml, and 5-bromo-2′-deoxyuridine (BrdU) at 1 μM.
[…] This is carried out with the aid of a “BrdU fast” kit sold by the company Boehringer and according to the supplier's instructions.
Compounds A and B of the preceding example were tested at the concentration of 50 nM.
The results, expressed as a percentage, represent the increase in the number of cells which entered the S phase relative to the control, that is to say relative to a culture carried out under the same conditions in the absence of alkanediol compounds.

HaCat cells [2] = assay: Effect on cell viability (mitochondrial respiration, XTT kit); details: 50 nM
Method: as §1, §2
(§3) 24 hours after inoculation, the cells are brought into contact with various compounds tested in a KBM medium (company Clonetics) containing insulin at 5 μg/ml and hydrocortisone at 0.5 μg/ml.
(§4) The cell viability is evaluated 48 hours later by the measurement of mitochondrial respiration. This is carried out with the aid of an XTT kit sold by the company Boehringer and according to the supplier's instructions.
Compounds A and B of the preceding example were tested at the concentration of 50 nM, as well as a derivative based on sphingenine: N-palmitoylsphingenine from Sigma (C16H).
The results, expressed as a percentage, represent the increase in the number of cells relative to the control, that is to say relative to a culture carried out under the same conditions in the absence of alkanediol compounds.

HaCat cells [3] = assay: Proliferative effect on keratinocytes in culture (cell counting, Coulter Counter); details: for increase in the number of cells relative to the control: counting 5 days after addition
Method: HaCat cells (Boukamp et al., J. Cell Biol. Vol. 106, March 1988, 761-771) are cultured in DMEM medium (company Gibco) containing amino acids (mixture of nonessential amino acids) at the concentration of 0.1 mM, penicillin and streptomycin at the respective concentrations of 50 International Units per milliliter and 50 μg/ml, glutamine at the concentration of 2 mM, sodium pyruvate at the concentration of 1 mM and foetal calf serum at 10%. These cells were inoculated at the density of 10,000 cells per well into the 24 wells of multiwell-type plates (Costar, France).
24 hours after inoculation, the cells are brought into contact with various compounds tested in a KBM medium (company Clonetics) containing 0.15 mM of calcium ion, insulin at 5 μg/ml, hydrocortisone at 0.5 μg/ml and lipid-free bovine serum albumin at 1 μg/ml.
Cell counting is carried out 5 days after the addition of the various ceramides using a cell counter of the Coulter Counter type.
The various compounds are tested at 0.5 nM, 5 nM, 50 nM and 500 nM.
The results, expressed as a percentage, represent the increase in the number of cells relative to the control, that is to say relative to a culture carried out under the same conditions in the absence of sphinganine.

HaCat cells [4] = assay: Cell viability in the presence of N-acetylsphingenine (XTT kit); details: 10 μM
Method: HaCat cells are cultured as in Example 2.
as §3
The cells are cultured in the presence of the 2-amino-1,3-octadecanediol to be tested until the cell viability is evaluated.
The N-acteylsphingenine at the concentration of 10 μM is added to the culture medium over 2 hours at the beginning of the experiment.
as §4
The experiment was carried out with the following compounds at the concentration of 50 nM:
in comparison with the culture medium without alkanediol and without N-acetylsphingenine (A), and with a medium containing only N-acetylsphingenine (B).
The results, expressed as a percentage, represent the number of cells relative to the control (A), that is to say relative to a culture carried out under the same conditions in the absence of alkanediol compounds and of N-acetysphingenine.

CCCCCCCCCCCCCCCC(O)C(N)CO (single isomer, unassigned) [A, 2-amino-1,3-octadecanediol]
effect on number of keratinocytes which entered the S phase (in words) (HaCat cells [1]): increase the number of keratinocytes which entered the S phase
increase in the number of cells which entered the S phase relative to the control (HaCat cells [1]; 72 hours): 36%
increase in the number of cells which entered the S phase relative to the control (HaCat cells [1]; 96 hours): 41%
effect on viability of keratinocytes in culture (in words) (HaCat cells [2]): increase the viability
cell viability: increase in the number of cells relative to the control (HaCat cells [2]; XTT 48 hours later): +17%
proliferative activity on keratinocytes in culture (in words) (HaCat cells [3]): proliferative activity
increase in the number of cells relative to the control (HaCat cells [3]; 0.5 nM): 7%
increase in the number of cells relative to the control (HaCat cells [3]; 5 nM): 15%
increase in the number of cells relative to the control (HaCat cells [3]; 50 nM): 17%
increase in the number of cells relative to the control (HaCat cells [3]; 500 nM): 30%

CCCCCCCCCCCCC/C=C/[C@@H](O)[C@H](CO)NC(=O)CCCCCCCCCCCCCCC [Compound C16H, N-palmitoylsphingenine, reference compound]
effect on viability of keratinocytes in culture (in words) (HaCat cells [2]): cytotoxic effect

N-acetylsphingenine [B]
effect of N-acetylsphingenine on cell viability (in words) (HaCat cells [4]): decrease in cell viability
